From patent US5187071A, “Method for the selective control of weeds, pests, and microbes” (priority 1988, dated 1993)

Assays:
[1] = system: 3-deoxy-D-arabino-heptulosonate 7-phosphate synthase; test: feedback inhibition of chloroplast DAHP synthase; assay type: biochemical, higher plants; conditions: higher-plant chloroplasts
From the text: Because L-arogenate regulates aromatic amino acid biosynthesis in the chloroplast by feedback inhibition exerted upon the initial enzyme of aromatic biosynthesis, it provides an excellent point of attack. Application of L-arogenate or an L-arogenate-type compound will cause a serious disturbance of the feedback inhibition mechanism of this crucial metabolic pathway.

[2] = system: DAHP synthase isozymes of higher plants; test: inhibition of DAHP synthase isozymes of higher plants; assay type: biochemical; conditions: two separately compartmented isozymes
From the text: The early amino acid pathway circuit entails the feedback inhibition of 3-deoxy-D-arabinoheptulosonate 7-P (DAHP) synthase by chorismate. Thus, the DAHP synthase of Xanthomonas offers unique target of vulnerability in nature since an appropriate analog mimic of chorismate produces false feedback inhibition of DAHP synthase in Xanthomonas but not in the higher plant host. […] Step two of the claimed process has thus been completed.
The DAHP synthase of xanthomonads is also sensitive to inhibition by L-tryptophan. […] Thus, analog mimics of L-tryptophan attack a second site within the basic DAHP synthase target of Xanthomonas.

[3] = system: a variety of bacteria, including N. gonorrhoeae; test: energy drain / PEP depletion in bacteria after EPSP synthase block; assay type: cell-based
From the text: The enzymic target of N-(phosphonomethyl) glycine action is not present in mammalian systems, therefore, N-(phosphonomethyl) glycine is not toxic to the human host. Because N-(phosphonomethyl) glycine acts on an enzyme which is present in pathogenic bacteria but not in the human host, this compound could be used as an effective control agent for bacterial pathogens.

[4] = system: cyclohexadienyl dehydrogenase; test: substrate utilization by cyclohexadienyl dehydrogenase; assay type: biochemical
From the text: (§1) Therefore, prephenyllactate is an appropriate prephenate analog for the control of phytopathogens.

[5] = system: microbial prephenate dehydrogenase; test: substrate utilization by microbial prephenate dehydrogenase; assay type: biochemical
From the text: as §1

arogenate dehydrogenase = test: substrate utilization by arogenate dehydrogenase enzymes; assay type: biochemical
From the text: as §1

Compound: N[C@@H](CC1(C(=O)O)C=CC(O)C=C1)C(=O)O (stereo partly drawn) [L-arogenate]
- feedback inhibition of the initial enzyme of aromatic biosynthesis [1]: feedback inhibitor

Compound: N[C@@H](Cc1c[nH]c2ccccc12)C(=O)O [L-tryptophan]
- sensitivity of higher-plant DAHP synthase isozymes to inhibition [2]: not affected

Compound: O=C(O)CNCP(=O)(O)O [N-(phosphonomethyl) glycine]
- drain upon intracellular supplies of PEP ([3]; even at microgram levels, shikimate-3-phosphate accumulates): produces a drain upon intracellular supplies of PEP
- energy drain from depletion of PEP and ATP ([3]; variety of bacteria, including N. gonorrhoeae): severe energy drain

Compound: C=C(O[C@@H]1C=C(C(=O)O)C=C[C@H]1O)C(=O)O [chorismate]
- sensitivity of higher-plant DAHP synthase isozymes to inhibition [2]: neither sensitive to inhibition

Compound: O=C(O)C(O)CC1(C(=O)O)C=CC(O)C=C1 (stereo not drawn) [prephenyllactate, β-(1-carboxyl-4-hydroxy-2,5-cyclohexadien-1-yl) lactic acid]
- utilization as substrate by cyclohexadienyl dehydrogenase [4]: as a substrate quite well
- utilization as substrate by microbial prephenate dehydrogenase [5]: as a substrate quite well
- utilization as substrate by arogenate dehydrogenase enzymes (arogenate dehydrogenase): do not use prephenyllactate as a substrate
